The source of these data is ChEMBL document CHEMBL1156380, “Inhibition of Mycobacterium tuberculosis growth by saringosterol from Lessonia nigrescens” (J Nat Prod, 2001).

As usually defined, the IC50 is the concentration at which inhibition is half-maximal. A word on the MIC: it is the lowest concentration that inhibits growth of the organism.

In brackets after ≈: the same amount, converted by molar mass. Activity calls are given as the source filed them. The calls are words filed in the database; no cut-off is given here. A value given as a limit tells only on which side of the number the result lay.

In the first test the test system is Vero. Briefly: Cytotoxicity against african green monkey Vero cells by celltiter 96 aqueous nonradioactive assay. It counts as cell-based. The note with it: Chlorocebus sabaeus.
Consider `C=CC(O)(CC[C@@H](C)[C@H]1CC[C@H]2[C@@H]3CC=C4C[C@@H](O)CC[C@]4(C)[C@H]3CC[C@]12C)C(C)C` (stereo partly specified) [SARINGOSTEROL], for which the IC50 is more than 128 mg/L.

Another test has as its system Mycobacterium tuberculosis. Briefly: Antitubercular activity against Mycobacterium tuberculosis H37Rv ATCC 27294 by BACTEC 460 radiometric assay. It counts as functional.
Details: not given
Consider `C=C[C@](O)(CC[C@@H](C)[C@H]1CC[C@H]2[C@@H]3CC=C4C[C@@H](O)CC[C@]4(C)[C@H]3CC[C@]12C)C(C)C`, for which the minimal inhibitory concentration (MIC) was found to be 1 mg/L (≈ 2.33 µM). `C=CC(O)(CC[C@@H](C)[C@H]1CC[C@H]2[C@@H]3CC=C4C[C@@H](O)CC[C@]4(C)[C@H]3CC[C@]12C)C(C)C` (stereo partly specified) [SARINGOSTEROL] displayed an MIC of 0.25 mg/L (≈ 0.583 µM).

As for `CO[C@H]1/C=C/O[C@@]2(C)Oc3c(C)c(O)c4c(O)c(c(/C=N/N5CCN(C)CC5)c(O)c4c3C2=O)NC(=O)/C(C)=C\C=C\[C@H](C)[C@H](O)[C@@H](C)[C@@H](O)[C@@H](C)[C@H](OC(C)=O)[C@@H]1C` [RIFAMPIN], the minimal inhibitory concentration (MIC) was 0.25 mg/L (≈ 0.304 µM). Regarding `C/C=C(\CC[C@@H](C)[C@H]1CC[C@H]2[C@@H]3CC=C4C[C@@H](O)CC[C@]4(C)[C@H]3CC[C@]12C)C(C)C`, the MIC entry was “inactive”. In turn, `C=C[C@@](O)(CC[C@@H](C)[C@H]1CC[C@H]2[C@@H]3CC=C4C[C@@H](O)CC[C@]4(C)[C@H]3CC[C@]12C)C(C)C` had an MIC of 0.125 mg/L (≈ 0.292 µM).
